Reference: article PMC8343220, “The selectivity of α‐adrenoceptor agonists for the human α1A, α1B, and α1D‐adrenoceptors” (Pharmacology Research & Perspectives, 2021)

How the values were obtained:
[1] = system: parental CHO cell line without any transfected receptors; test: Forskolin‐stimulated cAMP accumulation, parent CHO cells without transfected receptors; format: cell-based, Chinese hamster; details: CHO cells without transfected receptors; in presence of forskolin
[2] = system: parental CHO cell line without any transfected receptors; test: ERK1/2‐phosphorylation, parent CHO cells without transfected receptors; format: cell-based, Chinese hamster; details: for ERK1/2-phosphorylation % PDBu: maximal response as % of PDBu (10μM) response
human α1A‐adrenoceptor [3] = target: T1, human α1A‐adrenoceptor (Homo sapiens, UniProt P35348); test: ERK1/2‐phosphorylation (Surefire Alphascreen), CHO‐α1A cells; format: cell-based; details: CHO‐α1A cells, no EC50 obtained
T1 construct: expressed in transfected cells; host or cells: CHO-K1
T1 sequence (P35348 1-466): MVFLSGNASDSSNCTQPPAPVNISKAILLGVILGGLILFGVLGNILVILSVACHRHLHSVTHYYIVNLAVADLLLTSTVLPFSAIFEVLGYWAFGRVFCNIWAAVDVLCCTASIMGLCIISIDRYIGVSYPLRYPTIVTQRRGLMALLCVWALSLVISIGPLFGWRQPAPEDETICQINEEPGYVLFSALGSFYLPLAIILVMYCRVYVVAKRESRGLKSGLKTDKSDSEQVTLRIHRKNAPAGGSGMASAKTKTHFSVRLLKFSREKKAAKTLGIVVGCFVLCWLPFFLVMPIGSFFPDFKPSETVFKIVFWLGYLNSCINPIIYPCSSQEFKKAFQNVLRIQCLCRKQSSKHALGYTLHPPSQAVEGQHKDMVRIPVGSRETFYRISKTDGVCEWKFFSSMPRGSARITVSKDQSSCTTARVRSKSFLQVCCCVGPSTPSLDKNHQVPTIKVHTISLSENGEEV

human α1A‐adrenoceptor [4] = target: T1, human α1A‐adrenoceptor; test: ^3H‐prazosin whole‐cell radioligand binding, CHO‐α1A cells
[5] = target: T2, human α1D‐adrenoceptor (full length) (Homo sapiens, UniProt P25100); test: ^3H‐prazosin whole‐cell radioligand binding, CHO‐α1D cells; details: for Kd: CHO‐α1D cells
T2 construct: human α1D‐adrenoceptor (full length) were used; expressed in transfected cells; host or cells: CHO-K1
T2 sequence (P25100 1-572): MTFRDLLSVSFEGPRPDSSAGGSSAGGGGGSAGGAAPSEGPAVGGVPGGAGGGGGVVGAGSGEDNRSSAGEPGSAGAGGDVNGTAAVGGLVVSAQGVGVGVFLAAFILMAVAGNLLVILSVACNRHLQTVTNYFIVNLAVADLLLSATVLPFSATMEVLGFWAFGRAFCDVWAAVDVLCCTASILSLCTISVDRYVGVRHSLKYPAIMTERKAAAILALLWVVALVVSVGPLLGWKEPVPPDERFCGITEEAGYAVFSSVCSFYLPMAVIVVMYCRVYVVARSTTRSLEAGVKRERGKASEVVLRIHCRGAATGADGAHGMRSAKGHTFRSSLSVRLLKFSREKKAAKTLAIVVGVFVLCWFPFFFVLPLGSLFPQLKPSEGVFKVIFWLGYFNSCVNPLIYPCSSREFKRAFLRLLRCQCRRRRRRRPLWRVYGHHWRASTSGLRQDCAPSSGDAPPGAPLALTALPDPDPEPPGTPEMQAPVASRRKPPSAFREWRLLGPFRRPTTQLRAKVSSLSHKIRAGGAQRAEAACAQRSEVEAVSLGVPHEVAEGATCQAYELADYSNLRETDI

human α1B‐adrenoceptor [6] = target: T3, human α1B‐adrenoceptor (Homo sapiens, UniProt P35368); test: Intracellular free calcium mobilization, CHO‐α1B cells; format: cell-based; details: CHO‐α1B cells
T3 construct: expressed in transfected cells; host or cells: CHO-K1
T3 sequence (P35368 1-520): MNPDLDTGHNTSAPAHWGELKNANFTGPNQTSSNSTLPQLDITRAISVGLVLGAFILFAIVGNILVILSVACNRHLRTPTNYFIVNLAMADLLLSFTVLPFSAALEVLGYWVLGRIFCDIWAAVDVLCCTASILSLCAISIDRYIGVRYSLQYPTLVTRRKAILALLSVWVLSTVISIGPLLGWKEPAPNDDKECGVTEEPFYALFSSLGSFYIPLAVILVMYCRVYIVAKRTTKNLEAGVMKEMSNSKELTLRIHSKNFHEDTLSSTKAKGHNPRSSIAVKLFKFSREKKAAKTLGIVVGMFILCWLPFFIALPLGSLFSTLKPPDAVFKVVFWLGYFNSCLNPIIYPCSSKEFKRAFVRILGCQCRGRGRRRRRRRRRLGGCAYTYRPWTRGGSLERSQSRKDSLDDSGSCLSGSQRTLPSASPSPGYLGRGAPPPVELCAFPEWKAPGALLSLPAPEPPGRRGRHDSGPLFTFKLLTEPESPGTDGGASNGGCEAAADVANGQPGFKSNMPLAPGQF

human α1B‐adrenoceptor [7] = target: T3, human α1B‐adrenoceptor; test: ERK1/2‐phosphorylation (Surefire Alphascreen), CHO‐α1B cells; format: cell-based; details: CHO‐α1B cells
[8] = target: T2, human α1D‐adrenoceptor (full length); test: ERK1/2‐phosphorylation (Surefire Alphascreen), CHO‐α1D cells; format: cell-based
human α1A‐adrenoceptor [9] = target: T1, human α1A‐adrenoceptor; test: Intracellular free calcium mobilization, CHO‐α1A cells; format: cell-based; details: CHO‐α1A cells
[10] = target: T2, human α1D‐adrenoceptor (full length); test: Intracellular free calcium mobilization, CHO‐α1D cells; format: cell-based
human α1B‐adrenoceptor [11] = target: T3, human α1B‐adrenoceptor; test: ^3H‐prazosin whole‐cell radioligand binding, CHO‐α1B cells; details: CHO‐α1B cells; printed as IC50> log value
[12] = CHO cells without transfected receptors, mean ± s.e.m.
[13] = 3H‐prazosin binding Log KD, whole‐cell binding (from Table 1), log values given negative
[14] = given as log KD (negative), mean ± SEM, 'early plateau' = specific binding not fully inhibited
[15] = CHO‐α1D cells, log values given negative

SMILES: Nc1cc(Cl)c(N=C2NCCN2)c(Cl)c1 [Para-amino-clonidine]
- cAMP accumulation (in presence of forskolin) Log EC50 [1]: No response
- ERK1/2-phosphorylation % PDBu [2, 12]: No response

SMILES: CNC[C@H](O)c1cccc(O)c1 [R-phenylephrine]
- cAMP accumulation (in presence of forskolin) Log EC50 [1]: No response
- ERK1/2-phosphorylation % PDBu [2, 12]: No response

SMILES: C1COC(NC(C2CC2)C2CC2)=N1 [Rilmenidine]
- ERK1/2‐phosphorylation % PDBu at 10 µM (human α1A‐adrenoceptor [3]; response at 10 μM ligand): 89.0 ± 3.9%
- Kd (human α1A‐adrenoceptor [4]; Log KD α1A, ^3H‐prazosin whole cell binding, CHO‐α1A cells, given as log KD (negative), mean ± SEM): 32.4 µM
- Affinity selectivity ratio α1A vs α1B (human α1A‐adrenoceptor [4]; higher affinity for α1A than α1B): >3.1 fold
- Kd [5, 13]: 18.6 µM
- Kd [5, 14]: 18.6 µM
- Affinity selectivity ratio α1A vs α1D ([5]; higher affinity for α1D than α1A): 1.7 fold
- Affinity selectivity ratio α1B vs α1D ([5]; higher affinity for α1D than α1B): >5.4 fold
- Intracellular calcium release % Ionomycin at 100 µM (human α1B‐adrenoceptor [6]; response at 100 µM ligand (no EC50 given), % of ionomycin response): 20.0 ± 3.9%
- ERK1/2-phosphorylation % PDBu [2, 12]: No response
- ERK1/2-phosphorylation Log EC50 [2, 12]: No response
- ERK1/2‐phosphorylation Log EC50 (human α1B‐adrenoceptor [7]; for bi‐phasic responses the initial stimulatory part): No response
- ERK1/2‐phosphorylation % PDBu (human α1B‐adrenoceptor [7]; maximal response as % PDBu response, for bi‐phasic responses the initial stimulatory part): No response
- ERK1/2‐phosphorylation % PDBu [8]: No response
- ERK1/2‐phosphorylation Log EC50 [8, 15]: No response
- Log efficacy ratio KD /EC50 (human α1A‐adrenoceptor [9]; binding KD and calcium EC50): 1.19
- EC50 (human α1A‐adrenoceptor [9]; given as log EC50 (negative), read-out: Intracellular calcium release Log EC50 (converted)): 2.09 µM
- Intracellular calcium release % ionomycin (human α1A‐adrenoceptor [9]; maximal response as % of 10 µM ionomycin): 45.9 ± 3.8%
- Intracellular calcium release % Ionomycin at 100 µM [10]: 12.0 ± 0.9%
- IC50 (human α1B‐adrenoceptor [11]): > 100 µM

SMILES: CC(C)(C)NCC(O)c1ccc(O)c(CO)c1 (stereo not shown) [Salbutamol]
- ERK1/2‐phosphorylation % PDBu at 100 µM (human α1A‐adrenoceptor [3]; response at 100 μM ligand): 4.3 ± 1.9%
- Kd [5, 13]: 135 µM
- Kd [5, 14]: 135 µM
- EC50 (human α1B‐adrenoceptor [6]; given as log EC50 (negative numbers), read-out: Intracellular calcium release Log EC50 (converted)): 7.24 µM
- Intracellular calcium release % ionomycin (human α1B‐adrenoceptor [6]; maximal response as % of 10 µM ionomycin response): 58.4 ± 3.0%
- Emax at 100 µM ([2]; Cricetulus griseus, CHO, read-out: ERK1/2-phosphorylation % PDBu at 100μM): 3.5 ± 2%
- ERK1/2‐phosphorylation % PDBu at 100 µM (human α1B‐adrenoceptor [7]; response at 100 µM ligand (no EC50 given)): 7.1 ± 3.5%
- ERK1/2‐phosphorylation % PDBu at 100 µM ([8]; CHO‐α1D cells, response at 100 µM ligand (no EC50 given)): 4.0 ± 2.5%
- Intracellular calcium release Log EC50 [10, 15]: No response
- Intracellular calcium release % ionomycin ([10]; CHO‐α1D cells, maximal response as % of 10 µM ionomycin): No response
- IC50 (human α1B‐adrenoceptor [11]): > 1000 µM
